Holding throughout (format): in vivo
Data set [1] concerns German cockroach 2nd instars (Blittella germanica). Kind of data set: German cockroach 2nd instars, limited ingestion exposure (48 hr) to treated cornmeal. As to conditions: for potency relative to hexaflumuron: limited exposure, at both 21 and 42 days after exposure, in words. From the text:
German cockroach 2nd instars (Blittella germanica)
Limited ingestion exposure (48 hr) to treated cornmeal

The test system of data set [2] is Subterranean Termite (Reticulitermes flavipes). Kind of data set: Subterranean termite, limited exposure (7 days), mortality at 14, 28, 42 and 56 days. As to conditions: high rate, in words. From the text: (§1) Subterranean Termite (Reticulitermes flavipes)
Limited exposure (7 days) with mortality determined at 14, 28, 42, and 56 days

Data set [3] shares this test system. The data set is described as follows: Subterranean termite, continuous exposure (56 days) to treated paper. As to conditions: for LC50 (ppm) 56 days / LC50 (ppm) 35 days: continuous exposure to treated paper; for potency and speed of action relative to hexaflumuron: continuous exposure, in words.
Excerpt: as §1
Continuous exposure (56 days) to treated paper

Data set [4] deals with Cat Flea (Ctenocephalides felis). Kind of data set: Cat flea, continuous exposure of larvae to treated media, impact on subsequent adult emergence. As to conditions: for efficacy relative to hexaflumuron: cat fleas, in words. The source says: Cat Flea (Ctenocephalides felis)
Continuous exposure of larvae to treated media, impact on subsequent adult emergence

Data set [5] concerns Red Imported Fire Ant (RIFA) (Solenopsis inivicta). Kind of data set: Laboratory ant bait study, Red Imported Fire Ant, brood reduction. As to conditions: for Time to Achieve 50% Brood Reduction / Time to Achieve 90% Brood Reduction: RIFA, 3-4 day exposure. The method, then:
(§2) Laboratory ant bait studies were carried out with Red Imported Fire Ant (RIFA) (Solenopsis inivicta) and Pharaoh Ant (Monomorium pharionis). Chitin synthesis inhibitors, such as the compounds of the invention, control ants by killing the molting larvae and/or pupae and potentially preventing the hatching of eggs. Because adult workers are not affected, control is measured by effects on the brood. The studies involved 3-4 day exposure to bait. These limited exposure studies more accurately represent real world bait availability than continuous exposure.

Data set [6] relates to German cockroach 2nd instars (Blattella germanica). Kind of data set: German cockroach 2nd instars, continuous, low-dose ingestion exposure (treated cornmeal). The settings on record: for activity relative to hexaflumuron: continuous exposure; for activity relative to hexaflumuron / activities in cockroaches (Compounds 1, 2, and 3 compared): in words; for LC50 (ppm) 21 days / LC50 (ppm) 42 days: continuous ingestion exposure, treated cornmeal; for activities in cockroaches (Compounds 1, 2, and 3 compared): test not specified further, all three compounds were tested only under continuous exposure. The source says:
German cockroach 2nd instars (Blattella germanica)
Continuous, low-dose ingestion exposure (treated cornmeal)

Data set [7] has as its system Pharaoh Ant (Monomorium pharionis). The data set is described as follows: Laboratory ant bait study, Pharaoh Ant, brood reduction. The settings on record: 0.1% in bait, 3-4 day exposure. The method, then: as §2
For another data set, the system named is Daphnia. The data set is described as follows: Activity against Daphnia, 48 hr exposure to treated water.
Where [8] appears, read: limited ingestion exposure (48 hr), treated cornmeal.
The mark [9] stands for this setting: continuous exposure of larvae to treated media, subsequent adult emergence.
The mark [10] stands for this setting: 0.1% in bait, NA = not achieved.

Consider four compounds from patent US6245816A, “Benzoylphenylurea insecticides and methods of using certain benzoylphenylureas to control ants” (priority 2000, dated 2001).

Each structure is given as a SMILES string.

Turning to `O=C(NC(=O)c1c(F)cccc1F)Nc1cc(Cl)c(OC(F)(F)C(F)C(F)(F)F)c(Cl)c1F` (stereo not shown) [Compound 1, N-[3,5-Dichloro-2-fluoro-4-(1,1,2,3,3,3-hexafluoropropoxy)phenyl]-N'-(2,6-difluorobenzoyl)urea], in data set [1], the “potency relative to hexaflumuron” value is listed as “more potent than hexaflumuron”. Further, the “LC50 (ppm) 42 days” value in data set [1] (setting [8]) was less than 9.1 ppm. Further, the “mortality relative to hexaflumuron” value in data set [2] is listed as “induced more mortality earlier than did hexaflumuron”. For the same compound, in data set [3], the “LC50 (ppm) 56 days” value is listed as less than 0.78 ppm; the “potency and speed of action relative to hexaflumuron” value is “more potent and quicker acting than hexaflumuron”. Besides, the “efficacy relative to hexaflumuron” value in data set [4] was “far more efficacious than hexaflumuron”. In addition, in data set [4] (setting [9]), the “LC50 (ppm)” value was 2.8 ppm and the “LC90 (ppm)” value is recorded as 22 ppm. In data set [5] (setting [10]), the “Time to Achieve 50% Brood Reduction” value is on record as 2 wks and the “Time to Achieve 90% Brood Reduction” value is listed as 3 wks. For the same compound, the “potency relative to hexaflumuron” value in data set [5] (short exposure study with RIFA, in words) was “significantly more potent than hexaflumuron”. Moreover, in data set [6], the “activity relative to hexaflumuron” value is given as “far more active than hexaflumuron”; the “LC50 (ppm) 21 days” value is less than 2.2 ppm; the “LC50 (ppm) 42 days” value is listed as less than 0.78 ppm; the “activities in cockroaches (Compounds 1, 2, and 3 compared)” value is recorded as “quite similar”. In addition, the “Percent brood reduction achieved at end of study” value in data set [7] (@ 13 wks) worked out at 70%. Moreover, the “Time to Achieve 50% Brood Reduction” value in data set [7] (NA = not achieved) was 4 wks.

For `CCN(C(=O)NC(=O)c1c(F)cccc1F)c1cc(Cl)c(OC(F)(F)C(F)C(F)(F)F)c(Cl)c1F` (stereo not shown) [Compound 2, N-[3,5-Dichloro-2-fluoro-4-(1,1,2,3,3,3-hexafluoropropoxy)phenyl]-N'-(2,6-difluorobenzoyl)-N-ethylurea], the “potency relative to hexaflumuron” value in data set [1] is “more potent than hexaflumuron”. In data set [3], the “LC50 (ppm) 35 days” value was less than 0.78 ppm; the “LC50 (ppm) 56 days” value was less than 0.78 ppm; the “potency and speed of action relative to hexaflumuron” value was “more potent and quicker acting than hexaflumuron”. For the same compound, the “efficacy relative to hexaflumuron” value in data set [4] was “far more efficacious than hexaflumuron”. Besides, in data set [6], the “activity relative to hexaflumuron” value is listed as “far more active than hexaflumuron”; the “LC50 (ppm) 21 days” value was determined as 0.35 ppm; the “LC50 (ppm) 42 days” value stood at 0.26 ppm; the “activities in cockroaches (Compounds 1, 2, and 3 compared)” value is “quite similar”. Moreover, the “activity against Daphnia relative to Compound 1 and hexaflumuron” value with Daphnia (in vivo) was “much less active against Daphnia than were Compound 1 and hexaflumuron”.

As to `CCN(C(=O)Nc1cc(Cl)c(OC(F)(F)C(F)C(F)(F)F)c(Cl)c1F)C(=O)c1c(F)cccc1F` (stereo not shown) [Compound 3, N-[3,5-Dichloro-2-fluoro-4-(1,1,2,3,3,3-hexafluoropropoxy)phenyl]-N'-(2,6-difluorobenzoyl)-N'-ethyl urea], in data set [6], the “activity relative to hexaflumuron” value is listed as “far more active than hexaflumuron”; the “LC50 (ppm) 21 days” value amounted to 8.0 ppm; the “LC50 (ppm) 42 days” value is listed as 1.5 ppm; the “activities in cockroaches (Compounds 1, 2, and 3 compared)” value is “quite similar”. Moreover, in the data set with Daphnia (in words), the “activity against Daphnia relative to Compound 1 and hexaflumuron” value is “much less active against Daphnia than were Compound 1 and hexaflumuron”.

Turning to `O=C(NC(=O)c1c(F)cccc1F)Nc1cc(Cl)c(OC(F)(F)C(F)F)c(Cl)c1` [hexaflumuron, reference compound], the “LC50 (ppm) 21 days” value in data set [1] (limited ingestion exposure (48 hr), treated cornmeal, 21 days) is > 10,000 ppm. The “LC50 (ppm) 42 days” value in data set [1] (setting [8]) is recorded as > 10,000 ppm. Also, in data set [3], the “LC50 (ppm) 35 days” value is given as greater than 200 ppm and the “LC50 (ppm) 56 days” value worked out at 1.3 ppm. For the same compound, in data set [5] (0.25% in bait), the “Time to Achieve 50% Brood Reduction” value is given as 4 wks and the “Time to Achieve 90% Brood Reduction” value is on record as 10 wks. Besides, in data set [6], the “LC50 (ppm) 21 days” value is reported as greater than 200 ppm and the “LC50 (ppm) 42 days” value was greater than 200 ppm.
